Values of other authors in US7718385B2, “Bioactivation of alkylating agents for cancer treatment” (priority 2003, dated 2010).

How the values were obtained:
[1] = test system: SF-295; settings: SF-295, Central Nervous System, cited from earlier work
[2] = test system: NCI/ADR-RES; settings: cited from earlier work
[3] = test system: NCI-H23; settings: NCI-H23, Non-Small Cell Lung, cited from earlier work
[4] = test system: HCT-116; settings: HCT-116, Colon, cited from earlier work
[5] = test system: SF-539; settings: SF-539, Central Nervous System, cited from earlier work
[6] = test system: HOP-62; settings: HOP-62, Non-Small Cell Lung, cited from earlier work
[7] = test system: MDA-MB 231/ATCC; settings: cited from earlier work
[8] = test system: SK-MEL-28; settings: SK-MEL-28, Melanoma, cited from earlier work
[9] = test system: OVCAR-5; settings: OVCAR-5, Ovarian; cited from earlier work
[10] = test system: UO-31; settings: UO-31, Renal; cited from earlier work
[11] = test system: A498; settings: A498, Renal, cited from earlier work
[12] = test system: HCC-2998; settings: HCC-2998, Colon, cited from earlier work
[13] = test system: OVCAR-8; settings: OVCAR-8, Ovarian, cited from earlier work
[14] = test system: RPMI-8226; settings: RPMI-8226, Leukemia, cited from earlier work
[15] = test system: K-562; settings: K-562, Leukemia, cited from earlier work
[16] = test system: SF-268; settings: SF-268, Central Nervous System, cited from earlier work
[17] = test system: OVCAR-3; settings: OVCAR-3, Ovarian, cited from earlier work
[18] = test system: HS 578T; settings: cited from earlier work
[19] = test system: SK-MEL-2; settings: SK-MEL-2, Melanoma, cited from earlier work
[20] = test system: CAKI-1; settings: CAKI-1, Renal, cited from earlier work
[21] = test system: DU-145; settings: DU-145, Prostate, cited from earlier work

CC1=C(CO)C2=C(C)C3(CC3)[C@@](C)(O)C(=O)C2=C1 [Irofulven, 6-hydroxymethylacylfulvene]
GI50 [1]: 316 nM
TGI [1]: 6.31E−06
log(GI50) [1]: −6.5
log(LC50) [1]: −5
log(TGI) [1]: −5.2
CC50 ([1]; read-out: LC50): 10000 nM
GI50 ([2]; Breast): 251 nM
TGI ([2]; Breast): 7.94E−07
log(GI50) ([2]; Breast): −6.6
log(LC50) ([2]; Breast): −5.3
log(TGI) ([2]; Breast): −6.1
CC50 ([2]; read-out: LC50, Breast): 5010 nM
GI50 [3]: 79.4 nM
TGI [3]: 3.16E−07
log(GI50) [3]: −7.1
log(LC50) [3]: −6.1
log(TGI) [3]: −6.5
CC50 ([3]; read-out: LC50): 794 nM
GI50 [4]: 200 nM
TGI [4]: 5.01E−07
log(GI50) [4]: −6.7
log(LC50) [4]: −4.5
log(TGI) [4]: −6.3
CC50 ([4]; read-out: LC50): 31600 nM
GI50 [5]: 158 nM
TGI [5]: 5.01E−07
log(GI50) [5]: −6.8
log(LC50) [5]: −6.2
log(TGI) [5]: −6.3
CC50 ([5]; read-out: LC50): 631 nM
GI50 [6]: 158 nM
TGI [6]: 3.98E−07
log(GI50) [6]: −6.8
log(LC50) [6]: −5.9
log(TGI) [6]: −6.4
CC50 ([6]; read-out: LC50): 1260 nM
GI50 ([7]; Breast): 316 nM
TGI ([7]; Breast): 1.26E−06
log(GI50) ([7]; Breast): −6.5
log(LC50) ([7]; Breast): −4.1
log(TGI) ([7]; Breast): −5.9
CC50 ([7]; read-out: LC50, Breast): 79400 nM
GI50 [8]: 631 nM
TGI [8]: 1.58E−06
log(GI50) [8]: −6.2
log(LC50) [8]: −4.7
log(TGI) [8]: −5.8
CC50 ([8]; read-out: LC50): 20000 nM
GI50 [9]: 158 nM
TGI [9]: 5.01E−07
log(GI50) [9]: −6.8
log(LC50) [9]: −4.3
log(TGI) [9]: −6.3
GI50 [10]: 200 nM
TGI [10]: 5.01E−07
log(GI50) [10]: −6.7
log(TGI) [10]: −6.3
GI50 [11]: 200 nM
TGI [11]: 5.01E−07
log(GI50) [11]: −6.7
log(LC50) [11]: −5.7
log(TGI) [11]: −6.3
CC50 ([11]; read-out: LC50): 2000 nM
GI50 [12]: 158 nM
TGI [12]: 3.16E−07
log(GI50) [12]: −6.8
log(LC50) [12]: −6.2
log(TGI) [12]: −6.5
CC50 ([12]; read-out: LC50): 631 nM
GI50 [13]: 200 nM
TGI [13]: 6.31E−07
log(GI50) [13]: −6.7
log(LC50) [13]: −5
log(TGI) [13]: −6.2
CC50 ([13]; read-out: LC50): 10000 nM
GI50 [14]: 31600 nM
TGI [14]: 7.94E−05
log(GI50) [14]: −4.5
log(TGI) [14]: −4.1
CC50 ([14]; read-out: LC50): ≥ 100000 nM
GI50 [15]: 3160 nM
TGI [15]: 1.00E−04
log(GI50) [15]: −5.5
log(TGI) [15]: −4
CC50 ([15]; read-out: LC50): ≥ 100000 nM
GI50 [16]: 251 nM
TGI [16]: 2.51E−06
log(GI50) [16]: −6.6
log(TGI) [16]: −5.6
CC50 ([16]; read-out: LC50): ≥ 100000 nM
GI50 [17]: 251 nM
TGI [17]: 6.31E−07
log(GI50) [17]: −6.6
log(TGI) [17]: −6.2
CC50 ([17]; read-out: LC50): ≥ 100000 nM
GI50 ([18]; Breast): 316 nM
TGI ([18]; Breast): 1.58E−06
log(GI50) ([18]; Breast): −6.5
log(LC50) ([18]; Breast): −4.7
log(TGI) ([18]; Breast): −5.8
CC50 ([18]; read-out: LC50, Breast): 20000 nM
GI50 [19]: 200 nM
TGI [19]: 3.98E−07
log(GI50) [19]: −6.7
log(LC50) [19]: −6.2
log(TGI) [19]: −6.4
CC50 ([19]; read-out: LC50): 631 nM
GI50 [20]: 251 nM
TGI [20]: 7.94E−07
log(GI50) [20]: −6.6
log(LC50) [20]: −4.3
log(TGI) [20]: −6.1
CC50 ([20]; read-out: LC50): 50100 nM
GI50 [21]: 100 nM
TGI [21]: 2.00E−07
log(GI50) [21]: −7
log(TGI) [21]: −6.7
CC50 ([21]; read-out: LC50): ≥ 100000 nM
